Data on 22 compounds can be found in ChEMBL document CHEMBL4680082 (J Med Chem, 2016).

Test [1] concerns the target T1, 5-hydroxytryptamine receptor 2C (Homo sapiens, UniProt P28335).
T1 sequence (P28335 whole entry): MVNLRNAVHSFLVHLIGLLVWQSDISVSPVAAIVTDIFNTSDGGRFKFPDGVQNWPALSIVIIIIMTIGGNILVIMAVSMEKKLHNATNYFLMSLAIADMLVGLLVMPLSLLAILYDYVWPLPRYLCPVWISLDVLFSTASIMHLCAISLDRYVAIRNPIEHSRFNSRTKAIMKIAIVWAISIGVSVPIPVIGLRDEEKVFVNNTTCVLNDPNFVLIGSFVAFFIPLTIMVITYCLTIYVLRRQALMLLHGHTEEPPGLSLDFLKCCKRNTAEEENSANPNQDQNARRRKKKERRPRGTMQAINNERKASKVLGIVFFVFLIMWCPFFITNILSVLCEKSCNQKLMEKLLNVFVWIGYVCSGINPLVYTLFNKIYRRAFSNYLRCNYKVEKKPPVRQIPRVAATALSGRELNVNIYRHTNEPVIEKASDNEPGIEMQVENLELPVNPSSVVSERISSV

Test [2] addresses T2, 5-hydroxytryptamine receptor 2C (Homo sapiens) (UniProt P28335).
T2 sequence (whole entry): T1 sequence (P28335 whole entry)
The test can be described thus: Agonist activity at human 5-HT2C receptor expressed in human Flp-In-293 cells assessed as induction of calcium flux incubated for 1 hr by Fluo-4 direct dye based FLIPR assay relative to 5-HT. Format: functional, cell-based. The conditions noted are these: filed as agonist.

Test [3] has as its target T3, 5-hydroxytryptamine receptor 2B (Homo sapiens, UniProt P41595).
The target in test [4] is 5-hydroxytryptamine receptor 2A (Homo sapiens, UniProt P28223).
Description: Agonist activity at human 5-HT2A receptor expressed in human Flp-In-293 cells assessed as induction of calcium flux incubated for 1 hr by Fluo-4 direct dye based FLIPR assay
The target of test [5] is T3, 5-hydroxytryptamine receptor 2B. The experiment in a line: Agonist activity at human 5-HT2B receptor expressed in human Flp-In-293 cells assessed as induction of calcium flux incubated for 1 hr by Fluo-4 direct dye based FLIPR assay relative to 5-HT. The format is functional, cell-based.

In general, EC50 refers to the concentration that produces a half-maximal response. For orientation: Emax means the maximal effect, on the per cent scale that the assay sets.

Where “and” joins values, the source holds several entries; their conditions need not be identical. Equal values may be shown once.

T3 sequence (P41595 whole entry): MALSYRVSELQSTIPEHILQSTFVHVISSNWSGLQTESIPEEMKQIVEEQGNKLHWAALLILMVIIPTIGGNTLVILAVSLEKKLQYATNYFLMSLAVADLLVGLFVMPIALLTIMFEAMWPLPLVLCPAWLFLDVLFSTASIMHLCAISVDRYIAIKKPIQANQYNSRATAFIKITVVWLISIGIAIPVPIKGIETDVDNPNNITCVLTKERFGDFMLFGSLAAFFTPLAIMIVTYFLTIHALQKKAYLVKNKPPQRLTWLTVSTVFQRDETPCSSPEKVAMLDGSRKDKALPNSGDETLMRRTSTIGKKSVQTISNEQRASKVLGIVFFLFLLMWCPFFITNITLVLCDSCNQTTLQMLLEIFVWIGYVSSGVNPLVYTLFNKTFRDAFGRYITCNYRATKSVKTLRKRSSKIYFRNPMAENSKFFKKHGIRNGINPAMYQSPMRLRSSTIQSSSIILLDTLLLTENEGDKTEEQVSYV
Chain of 5-hydroxytryptamine receptor 2A (P28223 whole entry): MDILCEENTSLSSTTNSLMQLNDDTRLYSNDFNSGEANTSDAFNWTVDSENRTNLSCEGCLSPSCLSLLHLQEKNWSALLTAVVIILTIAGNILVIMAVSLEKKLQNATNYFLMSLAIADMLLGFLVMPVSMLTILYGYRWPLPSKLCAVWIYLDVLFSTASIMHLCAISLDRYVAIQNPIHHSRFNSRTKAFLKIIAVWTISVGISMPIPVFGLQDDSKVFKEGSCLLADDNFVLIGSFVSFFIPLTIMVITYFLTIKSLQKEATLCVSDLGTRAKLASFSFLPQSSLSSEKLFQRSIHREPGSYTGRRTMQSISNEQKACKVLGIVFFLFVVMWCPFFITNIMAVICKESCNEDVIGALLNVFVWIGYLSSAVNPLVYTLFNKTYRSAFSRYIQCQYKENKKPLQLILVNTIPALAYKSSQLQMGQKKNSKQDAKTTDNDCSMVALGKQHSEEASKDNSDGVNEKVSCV

Regarding `CCc1cc2c([C@@H]3C[C@H]3CN)c(OC)ccc2o1`, a half-maximal response in test [1] (EC50) required 101 nM. Further, the Emax in test [2] amounted to 88%.
Compound `CCCOc1ccc2oc(CC)cc2c1[C@H]1C[C@@H]1CN` had an EC50 in test [1] of 81 nM. In other words, the double-digit nanomolar range.
On to `CCOc1ccc2oc(CC)cc2c1[C@H]1C[C@@H]1CN`, for which the EC50 in test [3] is 309 nM; in test [1], 15 nM; in test [4], 2630 nM and 2600 nM. The Emax in test [2] came out at 100%.
Compound `C=CCOc1ccc2occc2c1[C@@H]1C[C@H]1CN` displayed an EC50 in test [1] of 56 nM. Also, the Emax in test [2] was 101%.
Consider `NC[C@H]1C[C@@H]1c1c(OCC2CC2)ccc2c1CCO2`, for which the figures for the EC50 in test [3], in test [1] and in test [4] were 269 nM, 26 nM and 754 nM, respectively. The Emax in test [2] came to 95%.
`NC[C@H]1C[C@@H]1c1c(OCC2CC2)ccc2occc12`: the Emax is 27% in test [5] and 99% in test [2]. Further, the results for the concentration for a half-maximal effect (EC50) in test [3], in test [1] and in test [4] were 180 nM, 12 nM and 456 nM, respectively.
In the case of `C=C(C)COc1ccc2occc2c1[C@@H]1C[C@H]1CN`, the maximum response (Emax) came out at 33% in test [5] and 70% in test [2]. Further, the EC50 in test [3] was found to be 733 nM; in test [1], 261 nM.
Take `CCc1cc2c([C@H]3C[C@@H]3CN)c(OCC3CC3)ccc2o1`: the response in test [1] was half-maximal at 138 nM (EC50). Moreover, the Emax in test [2] is 101%.
The compound `CCc1cc2c([C@@H]3C[C@H]3CN)c(OCC3CC3)ccc2o1` came in with an EC50 in test [1] of 446 nM. Also, the Emax in test [2] came out at 69%.
In the case of `NC[C@@H]1C[C@H]1c1c(OCC2CC2)ccc2occc12`, the Emax in test [5] is 27%; in test [2], 87%. Also, the EC50 is 513 nM and 524 nM in test [3]; 113 nM in test [1].
Consider `CCCOc1ccc2c(c1[C@H]1C[C@@H]1CN)CCO2`, for which the EC50 in test [3] came to 258 nM; in test [1] it was 20 nM; in test [4], 749 nM. The Emax in test [2] turned out to be 104%.
In turn, `CCc1cc2c([C@@H]3C[C@H]3CN)c(OCCF)ccc2o1` displayed an EC50 in test [1] of 81 nM. Moreover, the Emax in test [2] is 84%.
For `CCCOc1ccc2c(c1[C@@H]1C[C@H]1CN)CCO2` the same measures were 96 nM and 94%.
As to `CCOc1ccc2oc(CC)cc2c1[C@@H]1C[C@H]1CN`, in test [1], the EC50 came to 115 nM. In test [2], the Emax is 76%.
Consider `CCc1cc2c([C@H]3C[C@@H]3CN)c(OC)ccc2o1`, for which the values for the EC50 in test [3], in test [1] and in test [4] were 60 nM, 2.7 nM and 939 nM, respectively. Moreover, the Emax in test [2] was 101%.
Consider `C=C(F)COc1ccc2occc2c1[C@H]1C[C@@H]1CN`, for which the Emax in test [5] came to 38%; in test [2], 103%. In addition, the EC50 in test [3] worked out at 128 nM; in test [1], 9.2 nM; in test [4] it was 358 nM.
Consider `CCCOc1ccc2occc2c1[C@H]1C[C@@H]1CN`, for which the EC50 in test [1] was 10 nM; in test [4] it was 392 nM. In addition, the Emax in test [2] was 98%.
Turning to `C=C(C)COc1ccc2occc2c1[C@H]1C[C@@H]1CN`, the results for the Emax in test [5] (filed as agonist) and in test [2] were 40% and 99%, respectively. Also, the EC50 in test [3] was 150 nM; in test [1] it was 25 nM; in test [4], 260 nM.
For `C=C(F)COc1ccc2occc2c1[C@@H]1C[C@H]1CN`, the values for the Emax in test [5] and in test [2] were 29% and 93%, respectively. In addition, the EC50 in test [3] came to 585 nM; in test [1], 99 nM.
`C=CCOc1ccc2c(c1[C@@H]1C[C@H]1CN)CCO2` had an EC50 in test [1] of 94 nM. Further, the Emax in test [2] turned out to be 90%.
Turning to `NC[C@@H]1C[C@H]1c1c(OCC2CC2)ccc2c1CCO2`, in test [1], a half-maximal effect (EC50) was put at 283 nM. Moreover, the Emax in test [2] stood at 65%.
The like results for `CCCOc1ccc2occc2c1[C@@H]1C[C@H]1CN` were, in that order, 87 nM and 88%.
